Assay [1] has as its system astrocytes. The experiment in a line: NADPH/NADP+ levels in astrocytes. Format: cell-based, mouse. On the procedure:
Primary cultures of C57BL/6 mouse cortical astrocytes were derived from postnatal day 2-3 pups. They were plated on pre-treated dishes coated with Poly-L-lysine (100 µg/ml) and cultured in DMEM/F-12 (ThermoFisher) supplemented with 15% FBS and 1% penicillin/streptomycin (P/S). After 24 hours of plating, the medium was switched to 10% FBS.
The NADP/NADP-Glo™ Assay (Promega) was employed to assess the NADP/NADPH ratio in cultured cells, following the manufacturer's instructions (Technical Bulletin Number TM400). This bioluminescent assay can detect both total oxidized and reduced nicotinamide adenine dinucleotide phosphates (NADP+ and NADPH) and determine their ratio.
Cells were cultured in 24-well plates (Falcon®) at varying concentrations depending on the cell type and the specific experiment. After removing the media, we added 100 µl of PBS 1X per well and lysed the cells by introducing 100 µl of a base solution with 1% DTAB (1:1 ratio). To adapt the volumes for a 96-well plate, we divided the 200 µl total into two parts, allocating 50 µl for measuring NADP+ and 50 µl for NADPH in separate positions on the plate, allowing us to measure both NADP and NADPH levels. The assay was then carried out as per the standard protocol. Luminescence was measured using the CLARIOstar Plus plate reader from BMG LABTECH.

Assay [2] relates to 143B cells. The experiment in a line: Stable isotope tracing with uniformly labeled 13C-glucose. Format: cell-based. On the procedure:
1-5.0×10^6 cells were harvested on dry ice with 1 mL pre-chilled 80% HPLC-grade methanol (Fluka Analytical). The cell mixture was incubated for 15 min on dry ice prior to centrifugation at 18,000 × g for 10 min at 4°C. The supernatant was retained, and the remaining cell pellet was resuspended in 800 µL chilled 80% methanol and centrifuged. Supernatant was combined with the previous retention and was lyophilized using a SpeedVac (Thermo Fisher). Lyophilized samples were resuspended in 20 µL ultrapure water and subjected to metabolomics profiling using the AB/SCIEX 5500 QTRAP triple quadrupole instrument. Data analysis was performed using the GiTools software. […]
Encouraged by the beneficial effects of ME1 and because ME1-dependent NADPH production is linked to intracellular malate levels, we sought to investigate the metabolic pathways and nutrients that maintain malate production upon disruption of the ETC. It is firmly believed that in cells and tissues with defective ETC function, elevated NADH/NAD+ ratio inhibits the Pyruvate dehydrogenase complex (PDC), suppressing pyruvate entry into the mitochondria and forcing its channelling towards the Lactate Dehydrogenase (LDH) in the cytosol. […] This reaction involves addition of an unlabeled carbon by IDH2 acting in reverse relative to the canonical oxidative TCA cycle. Malate M+3 also rose more than a ~2-fold in CI-inhibited cells and was likely formed after cleavage of citrate M+5 by ATP-citrate lyase (ACLY) since this induction was blunted in ACLY KO cells. […] We hypothesized that an alternative mechanism could involve pyruvate entry into the mitochondria where it can be carboxylated to OAA by the pyruvate carboxylase (PC). […] To examine the contribution of PC to malate formation in the context of ETC dysfunction, control and PC KO cells were cultured with uniformly labeled [^13C]glucose and treated either with DMSO or Piericidin. In this labeling scheme, oxidative metabolism of glucose-derived pyruvate would give rise to TCA cycle intermediates with M+2 labeling as CO2 is removed during conversion of pyruvate to acetyl-CoA by pyruvate dehydrogenase (PDH). By contrast, carbon labels are retained if pyruvate is carboxylated by PC and would generate M+3 intermediates (Figure 3A). […] Malate and aspartate M+3/M+2 ratios, which reflect the relative contribution of PC versus PDH to metabolite labeling, were ~7-fold and ~10-fold higher respectively, in cells treated with Piericidin (Figure 3B and C). […] In this regard, it is not surprising that PC activity is favoured over PDH when the ETC is defective as it is not regulated by NADH levels.

Assay [3] concerns cortical neurons. The experiment in a line: ATP measurement in live neurons (FRET ATP biosensor). Particulars: soma or axons, 100 nM, 24 h. Format: cell-based, rats. The method, then:
ATP measurements was performed in primary co-cultures of cortical neurons and astrocytes from P1-2 wild-type rats of the Sprague-Dawley strain Crl:CD(SD), which are bred by Charles River Laboratories following the international genetic standard protocol (IGS). All experiments were carried out in strict accordance with the guidelines of the European Directive 2010/63/EU and the French Decree n° 2013- 118 concerning the protection of animals used for scientific purposes. Neurons were plate on poly- ornithine (Sigma-Aldrich, P3655) coated coverslips and maintained in culture media composed by MEM (Thermo Fisher Scientific, 51200-046), 20 mM Glucose (Sigma-Aldrich, G8270), 0.1 mg/mL transferrin (Sigma-Aldrich, 616420), 1% Glutamax (Thermo Fisher Scientific, 35050-038), 24 µg/mL insulin (Sigma-Aldrich, I6634), 5% FBS (Thermo Fisher Scientific, 10082-147), 2% N-21 (Bio-techne, AR008) and 4µM cytosine β-d-arabinofuranoside (Sigma-Aldrich, C6645). Cultures were incubated at 37°C in 95% air / 5% CO 2 humidified incubator.
Neurons were transfected at DIV 8 with ATeam1.03-nD/nA/pcDNA3 (gift from Takeharu Nagai (Addgene plasmid # 51958; http://n2t.net/addgene:51958; RRID:Addgene_51958)) and imaged at DIV 19. […] Fluorescence emission from ATeam was imaged using a FS 78 HE Dual camera; the exposure times were 250 ms for CFP and YFP images. […]

[4] abbreviates: uniformly labeled [13C]glucose, vs DMSO.

For `CC=C(C)C(O)C(C)C=C(C)C=CCC(C)=CCc1nc(OC)c(OC)c(O)c1C` (stereo not shown) [Piericidin, Piericidin A], the “levels of NADPH” value in assay [1] (PC and ME1 knockdown astrocytes, 100nM, 96 h) is on record as “reduced”. Moreover, in assay [1] (astrocytes, 100 nM, 24 h), the NADPH levels result is “did not cause any alteration”. Further, the “PDH-dependent labeling of aspartate and malate” value in assay [2] (control and PC KO cells) was “clearly reduced”. Besides, the “PC-mediated labeling of TCA cycle intermediates” value in assay [2] (particularly aspartate and malate) was “marked induction”. In assay [2] (setting [4]), the “Malate M+3/M+2 ratio, higher” value is recorded as ~ 7 fold and the “aspartate M+3/M+2 ratio, higher” value is ~ 10 fold. In assay [3], the “ATP (genetically encoded biosensor)” value is given as “did not altered”.

These data come from EP4653001A1, “TREATMENT, DIAGNOSIS AND/OR PROGNOSIS OF MITOCHONDRIAL DISEASES” (Universidad Autónoma de Madrid, priority 2024, dated 2025).
